Assay results from patent publication US12116614B2, “Methods for determining antibiotic sensitivity” (priority 2020, dated 2024).
Entries after “also recorded” stand apart in the source; their conditions may differ.

Legend:
A. baumanii [1] = test: Relative percent killing of planktonic versus anti-DNABII NRel by top-line antibiotics; format: cell-based; settings: 16-hour biofilms, HuTipMab 30 minutes, antibiotic 2 hours
Description: FIGS. 11A and 11B show relative percent killing of planktonic versus anti-DNABII NRel of five diverse species of human pathogens by each of the three current top-line antibiotics used to treat individuals with disease due to the indicated pathogen. Using the methods described herein, planktonic bacteria were recovered mid-log phase. NRel were induced by incubation of 16-hour biofilms with HuTipMab for 30 minutes. Planktonic and NRel populations were then incubated with each of three top-line antibiotics for 2 hours to determine relative percent killing. […] See boxed data in FIG. 11B for NTHI and S. aureus.

[2] = test system: planktonic P. aeruginosa isolate JG1; test: MIC for planktonic clinical isolate; format: cell-based; settings: planktonic P. aeruginosa isolate JG1 from CF sputum
Description: (§1) Here both the planktonic and anti-DNABII NRel of JG1 were incubated with ¼ of the indicated MIC of tobramycin.
MIC refers to minimal inhibitory concentration of an active agent such as a drug that is the lowest concentration that will inhibit the visible growth of a microorganism after overnight incubation and minimal bactericidal concentrations as the lowest concentration of an antimicrobial that will prevent the growth of an organism after subculture on antibiotic free media. Methods to determine these values are well known in the art and describe in Andrews, J. (2002) Antimicrob Chemother June; 49(6):1049.

[3] = test system: P. aeruginosa isolate JG1; test: Killing of planktonic and anti-DNABII NRel of clinical isolate at 1/4 MIC; format: cell-based
Description: as §1

[4] = test system: NTHI (biofilm-resident, planktonic, anti-rsPilA NRel, anti-IHF NRel); test: Antibiotic sensitivity of biofilm-resident, planktonic or NRel NTHI (2 h antibiotic exposure, CFU plating); format: cell-based, Nontypeable Haemophilus influenzae
Description: Biofilms were established for 16 hr at 37° C. as described above. For biofilm-resident NTHI: biofilms were washed twice with DPBS and incubated in sBHI supplemented with the indicated antibiotics for at 37° C. 2 h. For planktonic NTHI: NTHI were incubated in sBHI for 3 hr as described above to reach log phase of growth, then diluted to the approximate concentration of either the anti-IHF (2×10^8 CFU/ml) or anti-rsPilA NRels (3×10^8 CFU/ml) to permit comparison between anti-IHF or anti-rsPilA NRels, (see FIG. 1). Planktonic NTHI were incubated with the indicated antibiotics at 37° C. for 2 hr. For NRel NTHI: anti-IHF or anti-rsPilA NRel, generated and collected as described above were incubated at 37° C. for 2 hr with the indicated antibiotics. CFU NTHI were determined by serial dilution and plating. Amoxicillin (Sigma-Aldrich, St. Louis, MO) and clavulanate (U.S. Pharmacopeia, Rockville, MD) were used at a ratio of 2:1. Trimethoprim (Sigma-Aldrich) and sulfamethoxazole (Santa Cruz Biotech, Dallas, TX) were used at a ratio of 1:5. […] All experiments were performed at least three times on separate days with two technical replicates for each treatment and control group.
To avoid excessive manipulation or dilution of NRel NTHI, and to permit direct comparison of equal numbers of planktonic and NRel, the planktonic cell density was adjusted to the same CFU per ml as the NRel population in each experiment as follows: NTHI were incubated statically to mid log phase growth then diluted to either 3×10^8 CFU/ml for comparison with anti-rsPilA NRel collected at 6 h, or to 2×10^8 CFU/ml for comparison with anti-IHF NRel collected at 15 min (see FIG. 1). Applicant then determined the concentrations of amoxicillin (Sigma-Aldrich, St. Louis, MO) and clavulanate (U.S. Pharmacopeia, Rockville, MD), or of trimethoprim (Sigma-Aldrich) and sulfamethoxazole (Santa Cruz Biotech, Dallas, TX) that killed approximately 25% of planktonic NTHI at each density. The same antibiotic concentrations were used for the anti-IHF or anti-rsPilA NRel, the density-matched (same CFU/ml) planktonic NTHI, and the adherent biofilm for each relevant experiment. […] Applicant then assessed killing of anti-IHF or anti-rsPilA NRel by concentrations of amoxicillin plus clavulanic acid (“augmentin”, AMC) or trimethoprim plus sulfamethoxazole (TMP-SMX) that killed 25% of the planktonic NTHI at the same density.
Anti-rsPilA or anti-IHF NRel were collected and sonicated as described above. After sonication for 2 min in a water bath sonicator to break up any NTHI aggregates, NRel or planktonic NTHI were incubated with the indicated antibiotics at 37° C. for 2 h, then serially diluted and plated on chocolate agar to quantify viable NTHI. To assay biofilm-resident NTHI, biofilms were established for 16 h at 37° C. as described above, washed twice with DPBS and incubated in sBHI supplemented with the indicated antibiotics at 37° C. After 2 h, biofilm-resident NTHI were collected by forceful pipetting, sonicated for 2 min and enumerated as described above. All experiments were performed at least three times on separate days with two or three technical replicates for each treatment and control group.

[5] = test system: NRel versus Non-Associated NTHI
Description: Applicant tested for this phenotype for either Amox/Clav or Trimethoprim/Sulfamethoxazole to determine when this sensitivity first appears and how long this NRel phenotype lasts (i.e. what is the window of opportunity in which to treat a patient with a biofilm disease?). Here, NRel are compared not to planktonic bacteria (due to their artificiality) but rather to “Non-Associated” bacteria which are those found in the supernatant above the biofilm but not associated with biofilm residence as this population represents those bacteria that naturally come off the biofilm or were never a part of the biofilm which is a normal aspect of the preferred bacterial lifestyle in nature. […] Box Legend: NRelAC—relative killing by Amox/Clav; NRel TS—relative killing by Trimethoprim/Sulfamethoxazole; open symbols are the same but for the non-associated populations of bacteria as now described in this legend. Data was generated with a murine anti-tip chimer antibody.
Box Legend: NRelAC—relative killing by Amox/Clav; NRel TS—relative killing by Trimethoprim/Sulfamethoxazole; open symbols are the same but for the non-associated populations of bacteria as now described in this legend. Data was generated with a murine anti-tip chimer antibody.

A. baumanii [6] = test: Time and dose-dependent release into NRel state from established biofilms by HuTipMab; format: cell-based; settings: A. baumanii biofilm; versus HuIgG negative control
Description: (§2) FIGS. 8A to 8F show the time and dose-dependence of release of six diverse species of human pathogens into the NRel state by anti-DNABII which occurs when established biofilms are incubated with a humanized monoclonal antibody raised against a chimeric peptide identified as IhfA5-mIhfB4 tip chimer (The humanized antibody utilized in this example (identified in the Figure and herein as “HuTipMab”) comprises heavy chain 1 (HCl) and light chain 2 (LC2) as disclosed herein) but not when similarly incubated with the negative control (“HulgG” a commercially available naïve human serum of the isotype IgG).

B. cenocepacia = test: as above; format: cell-based; settings: B. cenocepacia biofilm; versus HuIgG negative control
Description: as §2

P. aeruginosa = test: as above; format: cell-based; settings: P. aeruginosa biofilm; versus HuIgG negative control
Description: as §2

S. aureus = test: as above; format: cell-based; settings: S. aureus biofilm; versus HuIgG negative control
Description: as §2

S. pneumoniae = test: as above; format: cell-based; settings: S. pneumoniae biofilm; versus HuIgG negative control
Description: as §2

[7] = test system: nontypeable H. influenzae (NTHI); test: as above; format: cell-based; settings: NTHI biofilm; versus HuIgG negative control
Description: as §2

[8] = after exposure to anti-DNABII antibody

`NC[C@H]1O[C@H](O[C@H]2[C@H](O)[C@@H](O[C@H]3O[C@H](CO)[C@@H](O)[C@H](N)[C@H]3O)[C@H](N)C[C@@H]2N)[C@H](N)C[C@@H]1O` [tobramycin] was tested, and the “relative killing of anti-DNABII NRel versus planktonic” value (A. baumanii [1]) was “not killed significantly greater”, the MIC [2] was 4086 μg tobramycin/ml and the “killing of anti-DNABII NRel of JG1 compared to planktonic” value ([3]; 1/4 MIC tobramycin, n=3, p≤0.01) was “significantly more sensitive to killing”. The “planktonic JG1 killed” value ([3]; 1/4 of the MIC of tobramycin) was ~25%.

amoxicillin and clavulanic acid [A/C] was tested, and the “sensitivity of biofilm-resident NTHI to killing” value ([4]; 16 h biofilm, 2 h antibiotic) was “minimal sensitivity”, the “sensitivity to killing of anti-IHF NRel compared to biofilm-resident NTHI” value ([4]; NRel after 15 min anti-IHF, 2 h antibiotic) was “significantly more sensitive” and the “sensitivity to killing of anti-IHF NRel compared to planktonic NTHI” value ([4]; NRel after 15 min anti-IHF, 2 h antibiotic at concentration killing ~20-25% of planktonic NTHI) was “significantly more sensitive”. For the same molecule, the “sensitivity to killing of anti-rsPilA NRel compared to biofilm-resident NTHI” value ([4]; NRel after 6 h anti-rsPilA, 2 h antibiotic) was “significantly more sensitive”, the “sensitivity to killing of anti-rsPilA NRel compared to planktonic NTHI” value ([4]; NRel after 6 h anti-rsPilA, 2 h antibiotic at concentration killing ~20-25% of planktonic NTHI) was “only equally as sensitive; also recorded: only as equally as sensitive” and the “sensitivity to killing of anti-rsPilA NRel compared to planktonic NTHI” value ([4]; NRel after 6 h anti-rsPilA, 2 h antibiotic at concentration killing ~20-25% of planktonic NTHI, listed as AMC) was “only equally as sensitive”. The “sensitivity to killing of time-matched anti-rsPilA NRel compared to planktonic NTHI” value ([4]; NRel collected after 2 h, TMP-SMX 0.09 and 0.45 μg per ml, AMC 0.3 and 0.15 μg per ml, listed as AMC) was “only equally as sensitive; also recorded: equally susceptible”, the “sensitivity to killing of time-matched anti-IHF NRel compared to planktonic NTHI” value ([4]; NRel collected after 2 h, TMP-SMX 0.94 and 4.7 μg/ml, AMC 2.5 and 1.25 μg/ml, listed as AMC) was “significantly more sensitive; also recorded: significantly more susceptible” and the “sensitivity of anti-DNABII NRel to killing compared to Non-Associated bacteria” value ([5]; NRel induced with murine anti-tip chimer antibody) was “significantly greater sensitivity”. The “time at which sensitivity of anti-DNABII NRel reaches a maximum” value [5, 8] was ≤ 2 h, the “time at which significantly greater sensitivity of anti-DNABII NRel occurs” value [5, 8] was ≤ 5 min and the “time until which greater sensitivity of anti-DNABII NRel lasts” value [5, 8] was ~3 h. For the same molecule, the “time by which greater sensitivity of anti-DNABII NRel wanes” value ([5]; post exposure to anti-DNABII antibody) was ≤ 6 h.

B1: HuTipMab (antibody)
heavy: EVQLVESGGGLVQPGGSLRLSCAASGFTFRTYAMSWVRQAPGKGLEWVATIGSDRRHTYYPDSVKGRFTISRDNSKNTLYLQMNSLRAEDTAVYYCVGPYDGYYGEFDYWGQGTLVTVSSASTKGPSVFPLAPSSKSTSGGTAALGCLVKDYFPEPVTVSWNSGALTSGVHTFPAVLQSSGLYSLSSVVTVPSSSLGTQTYICNVNHKPSNTKVDKKVEPKSCDKTHTCPPCPAPELLGGPSVFLFPPKPKDTLMISRTPEVTCVVVDVSHEDPEVKFNWYVDGVEVHNAKTKPREEQYNSTYRVVSVLTVLHQDWLNGKEYCKVSNKALPAPIEKTISKAKGQPREPQVYTLPPSREEMTKNQVSLTCLVKGFYPSDIAVEWESNGQPENNYKTTPPVLDSDGSFFLYSKLTVDKSRWQQGNVFSCSVMHEALHNHYTQKSLSLSPG
light: DVVMTQSPLSLPVTLGQPASISCRSSQSLLDSDGKTFLNWLQQRPGQSPRRLIYLVSKRDSGVPDRFSGSGSGTDFTLKISRVEAEDVGVYYCWQGTHFPYTFGQGTKLEIKRTVAAPSVFIFPPSDEQLKSGTASVVCLLNNFYPREAKVQWKVDNALQSGNSQESVTEQDSKDSTYSLSSTLTLSKADYEKHKVYACEVTHQGLSSPVTKSFNRGEC
B1 was tested, and the “release into the NRel state over time” value (A. baumanii [6]) was “jump in the number of NRel at 30 mins regardless of dose”, the “release into the NRel state over time” value (B. cenocepacia) was “jump in the number of NRel at 30 mins regardless of dose” and the “release into the NRel state over time” value (P. aeruginosa) was “gradual, more linear increase over time”. The “release into the NRel state over time” value (S. aureus) was “jump in the number of NRel at 30 mins regardless of dose”, the “release into the NRel state over time” value (S. pneumoniae) was “gradual, more linear increase over time” and the “release into the NRel state over time” value [7] was “jump in the number of NRel at 30 mins regardless of dose”.
